Results as given in patent US9617253B2, “Molecules having pesticidal utility, and intermediates, compositions, and processes, related thereto” (Dow AgroSciences LLC, priority 2015, dated 2017).

How the values were obtained:
Type in all cases: in vivo
[1] = test system: Cabbage Looper (Trichoplusia ni, TRIPNI); test: Bioassay on Cabbage Looper (CL), 128-well diet tray assay; conditions: 168 h, second instar CL larvae, 50 μg/cm^2 on artificial diet, 25° C., five to seven days, average of eight wells, read-out: CL % Control (or Mortality) rating
Description: (§1) Certain molecules disclosed in this document were tested against BAW and CL using procedures described in the following examples. In the reporting of the results, the “BAW & CL Rating Table” was used (See Table Section).
Bioassays on CL were conducted using a 128-well diet tray assay. One to five second instar CL larvae were placed in each well (3 mL) of the diet tray that had been previously filled with 1 mL of artificial diet to which 50 μg/cm^2 of the test molecule (dissolved in 50 μL of 90:10 acetone-water mixture) had been applied (to each of eight wells) and then allowed to dry. Trays were covered with a clear self-adhesive cover, vented to allow gas exchange, and held at 25° C., 14:10 light-dark for five to seven days. Percent mortality was recorded for the larvae in each well; activity in the eight wells was then averaged. The results are indicated in the table entitled “Table ABC: Biological Results” (See Table Section).

[2] = test system: Beet Armyworm (Spodoptera exigua, LAPHEG); test: Bioassay on Beet Armyworm (BAW), 128-well diet tray assay; conditions: 168 h, second instar BAW larvae, 50 μg/cm^2 on artificial diet, 25° C., five to seven days, average of eight wells, read-out: BAW % Control (or Mortality) rating
Description: as §1
Bioassays on BAW were conducted using a 128-well diet tray assay. One to five second instar BAW larvae were placed in each well (3 mL) of the diet tray that had been previously filled with 1 mL of artificial diet to which 50 μg/cm^2 of the test molecule (dissolved in 50 μL of 90:10 acetone-water mixture) had been applied (to each of eight wells) and then allowed to dry. Trays were covered with a clear self-adhesive cover, vented to allow gas exchange, and held at 25° C., 14:10 light-dark for five to seven days. Percent mortality was recorded for the larvae in each well; activity in the eight wells was then averaged. The results are indicated in the table entitled “Table ABC: Biological Results” (See Table Section).

[3] = test system: Yellow Fever Mosquito (Aedes aegypti, AEDSAE); conditions: about 1 day-old larvae, from 4000 ppm DMSO master plate, room temperature, scored after 3 days
Description: Certain molecules disclosed in this document were tested against YFM using procedures described in the following paragraph. In the reporting of the results, the “YFM Rating Table” was used (See Table Section).
Master plates containing 400 μg of a molecule dissolved in 100 μL of dimethyl sulfoxide (DMSO) (equivalent to a 4000 ppm solution) are used. A master plate of assembled molecules contains 15 μL per well. To this plate, 135 μL of a 90:10 water/acetone mixture is added to each well. A robot (Biomek® NXP Laboratory Automation Workstation) is programmed to dispense 15 μL aspirations from the master plate into an empty 96-well shallow plate (“daughter” plate). There are 6 reps (“daughter” plates) created per master. The created “daughter” plates are then immediately infested with YFM larvae.
The day before plates are to be treated, mosquito eggs are placed in Millipore water containing liver powder to begin hatching (4 g into 400 mL). After the “daughter” plates are created using the robot, they are infested with 220 μL of the liver powder/larval mosquito mixture (about 1 day-old larvae). After plates are infested with mosquito larvae, a non-evaporative lid is used to cover the plate to reduce drying. Plates are held at room temperature for 3 days prior to grading. After 3 days, each well is observed and scored based on mortality. The results are indicated in the table entitled “Table ABC: Biological Results” (See Table Section).

Row | SMILES | mortality at 50 µg/cm2 [1] [%] | mortality at 50 µg/cm2 [2] [%] | YFM % Control (or Mortality) rating [3]
1 | CCCc1ccc(C)cc1N1C(=O)CS/C1=N\C(=O)Nc1ccc(COc2ncn(-c3ccc(OC(F)(F)F)cc3)n2)cc1 [F5, (Z)-1-(3-(5-Methyl-2-propylphenyl)-4-oxothiazolidin-2-ylidene)-3-(4-(((1-(4-(trifluoromethoxy)phenyl)-1H-1,2,4-triazol-3-yl)oxy)methyl)phenyl)urea] | 50 to 100 | 50 to 100 | A (80-100)
2 | COCc1ccc(C)cc1N1C(=O)CS/C1=N\C(=O)Nc1ccc(COc2ncn(-c3ccc(OC(F)(F)F)cc3)n2)cc1 [F8, (Z)-1-(3-(2-(Methoxymethyl)-5-methylphenyl)-4-oxothiazolidin-2-ylidene)-3-(4-(((1-(4-(trifluoromethoxy)phenyl)-1H-1,2,4-triazol-3-yl)oxy)methyl)phenyl)urea] | 50 to 100 | 50 to 100 | A (80-100)
3 | COCc1ccc(C)cc1N1C(=O)CS/C1=N\C(=O)Nc1ccc(COc2ncn(-c3ccc(OC(F)(F)F)cc3)n2)c(F)c1 [F9, (Z)-1-(3-Fluoro-4-(((1-(4-(trifluoromethoxy)phenyl)-1H-1,2,4-triazol-3-yl)oxy)methyl)phenyl)-3-(3-(2-(methoxymethyl)-5-methylphenyl)-4-oxothiazolidin-2-ylidene)urea] | 50 to 100 | 50 to 100 | A (80-100)
4 | CCCc1ccc(C)cc1N1C(=O)CS/C1=N\C(=O)Nc1ccc(OCc2ncn(-c3ccc(OC(F)(F)F)cc3)n2)cc1 [F17, (Z)-1-(3-(5-Methyl-2-propylphenyl)-4-oxothiazolidin-2-ylidene)-3-(4-((1-(4-(trifluoromethoxy)phenyl)-1H-1,2,4-triazol-3-yl)methoxy)phenyl)urea] | 50 to 100 | 50 to 100 | A (80-100)
5 | Cc1ccc(C(C)C)c(N2C(=O)CS/C2=N\C(=O)Nc2cc(F)c(OCc3ncn(-c4ccc(OC(F)(F)F)cc4)n3)c(F)c2)c1 [F41, (Z)-1-(3,5-Difluoro-4-((1-(4-(trifluoromethoxy)phenyl)-1H-1,2,4-triazol-3-yl)methoxy)phenyl)-3-(3-(2-isopropyl-5-methylphenyl)-4-oxothiazolidin-2-ylidene)urea] | 50 to 100 | 50 to 100 | A (80-100)
